Measured values taken from paper PMC12567500, “Activity-Based Profiling of Papain-like Cysteine Proteases During Late-Stage Leaf Senescence in Barley” (Plants, 2025).

How the values were obtained:
[1] = test system: PLCPs (cathepsin B- and L-like activity, Fr. No 35–36 of barley leaf extract); experiment: Inhibition of Z-FR-AMC cleavage, pooled ion-exchange fractions Nos. 35–36; format: biochemical, barley (Hordeum vulgare L.); settings: for IC50: substrate Z-FR-AMC 25 µM, Fr. No 35–36, senescing leaves six weeks after anthesis, pH 5.5, read-out: Effect/IC50
Procedure: (§1) Soluble proteins from barley leaves were extracted by homogenizing 10 g of leaf powder in 200 mL of ice-cold 50 mM Tris-HCl buffer (pH 7.4). Homogenates were filtered through one layer of Miracloth (Calbiochem, San Diego, CA, USA), centrifuged at 20,000× g for 20 min at 4 °C, and the supernatants were then filtered through a 0.45 μm filter (Avantor, Radnor, PA, USA). PLCPs were separated using anion-exchange chromatography on a DEAE-Sepharose CL-6B column (volume 6 mL) equilibrated with 0.05 M Tris-HCl buffer (pH 7.4). The column was washed with equilibration buffer, and bound material was eluted with a NaCl gradient (0.0–1.0 M). Collected fractions (1 mL each) were kept in an ice bath and used for measurements of peptidase activity and protein content. Fractions with active cysteine proteases were pooled. To reduce the NaCl concentration and exchange the buffer to 0.1 M Na-citrate (pH 5.5), three sequential filtration steps using 10 kDa ultrafiltration 15 mL units (Merck Millipore Ltd., Carrigtwohill, County Cork, Ireland) were utilized, and the samples were incubated with gentle shaking with 10 µM DCG-04 in the presence of 2 mM DTT for 3 h at 37 °C. […] The intensity of DCG-04-labeled barley cysteine proteases was determined in our previous experiments using streptavidin-horseradish peroxidase. After the incubation, proteins were rapidly precipitated using 80% acetone under inclusion of 100 mM NaCl.
(§2) Fluorogenic substrates Z-FR-AMC to determine cathepsin B- and L-like activity, and Z-RR-AMC to determine cathepsin B-like activity, were used. These substrates show fluorescence when AMC is released as a consequence of the hydrolysis of the Arg-AMC bond. The emitted fluorescence was detected with a SpectraMax M2 microplate reader (Molecular Devices, San Jose, CA, USA) with λex = 360 nm and λem = 460 nm. Before use, the substrates were dissolved in DMSO at 10 mM and stored at −20 °C. The measurements were made in 96-well black microplates (PerkinElmer Inc., Waltham, MA, USA), and each well contained a 100 μL final volume of 0.1 M Na-citrate buffer (pH 5.5) with DTT (2 mM), an aliquot of extract or chromatographic fraction, and fluorogenic substrate (25 μM). The reaction was initiated by the addition of the substrate. The final concentration of DMSO in microplate wells was 1% in all assays. The assays were conducted at room temperature, and relative fluorescence readings were recorded over a period of 10 min.
(§3) For the inhibition assays, an inhibitor (1 µL of stock solution of E-64 or bestatin in DMSO, or stock solution of 1,10-phenanthroline in ethanol) at different concentrations was added to the reaction mixture. […]

[2] = target: R-AMC cleaving aminopeptidase activity (Fr. No 26–27 of barley leaf extract); experiment: Inhibition of R-AMC cleaving aminopeptidase activity, pooled ion-exchange fractions Nos. 26–27; format: biochemical, barley (Hordeum vulgare L.); settings: for IC50: substrate R-AMC 25 µM, Fr. No 26–27, senescing leaves six weeks after anthesis, pH 5.5, read-out: Effect/IC50; for Inhibition of R-AMC cleaving aminopeptidase activity (in words): substrate R-AMC, earlier eluting fractions
[3] = test system: PLCPs (cathepsin B-like activity, Fr. No 35–36 of barley leaf extract); experiment: Inhibition of Z-RR-AMC cleavage, pooled ion-exchange fractions Nos. 35–36; format: biochemical, barley (Hordeum vulgare L.); settings: for IC50: substrate Z-RR-AMC 25 µM, Fr. No 35–36, senescing leaves six weeks after anthesis, pH 5.5, read-out: Effect/IC50
Procedure: as §1, §2, §3

[4] = test system: PLCPs (pooled fractions with active cysteine proteases); experiment: DCG-04 labeling of pooled active fractions, remaining PLCP activity checked with Z-FR-AMC and Z-RR-AMC; format: biochemical, barley (Hordeum vulgare L.); settings: 10 µM DCG-04, 2 mM DTT, 3 h at 37 °C, 0.1 M Na-citrate pH 5.5
Procedure: as §1, with “After the incubation, proteins were rapidly precipitated using 80% acetone under inclusion of 100 mM NaCl.” left out

[5] = test system: aleurain (a cysteine aminopeptidase); parameters: method as in PMID 12354950; settings: cited from earlier work
PLCPs from maize leaves = test system: PLCPs from maize leaves; parameters: method as in PMID 31114592; settings: ion-exchange chromatography; cited from earlier work

In the case of CC(C)C[C@H](NC(=O)[C@@H](O)[C@H](N)Cc1ccccc1)C(=O)O [Bestatin, bestatin], the IC50 [1] is reported as greater than 1000 µM, the IC50 [2] is reported as 247 ± 38 µM and the “Inhibition of R-AMC cleaving aminopeptidase activity (in words)” value [2] is reported as “inhibited”. It also gave an IC50 [3] greater than 1000 µM.

With c1cnc2c(c1)ccc1cccnc12 [1,10-Phenanthroline, 1,10-phenanthroline] the IC50 [1] was greater than 5000 µM, the IC50 [2] was 68.5 ± 12.2 µM and the “Inhibition of R-AMC cleaving aminopeptidase activity (in words)” value [2] was “inhibited”. The IC50 [3] was greater than 5000 µM.

With CCOC(=O)[C@H]1O[C@@H]1C(=O)N[C@@H](CC(C)C)C(=O)N[C@@H](Cc1ccc(O)cc1)C(=O)NCCCCCC(=O)N[C@@H](CCCCNC(=O)CCCC[C@@H]1SC[C@@H]2NC(=O)N[C@@H]21)C(N)=O [DCG-04] the “Remaining PLCP activity after incubation with probe” value [4] was “No remaining PLCP activity”.

In the case of CC(C)C[C@H](NC(=O)[C@H]1O[C@@H]1C(=O)O)C(=O)NCCCCN=C(N)N (relative stereo) [E-64, trans-epoxysuccinyl-L-leucylamido-(4-guanidino)butane], the “Inhibition of aleurain activity (in words)” value [5] is given as “inhibited”, the IC50 [1] is given as 0.0153 ± 0.0041 µM and the “Inhibition of the activity of the peak fractions (in words)” value ([1]; substrate Z-FR-AMC, peak fractions of DEAE-Sepharose) is given as “completely inhibited”. The IC50 [2] was greater than 25 µM, the “Sensitivity of the single Z-FR-AMC cleavage activity peak to inhibition (in words)” value (PLCPs from maize leaves) was “sensitive” and the IC50 [3] was 0.0091 ± 0.0022 µM. The “Inhibition of the activity of the peak fractions (in words)” value ([3]; substrate Z-RR-AMC, peak fractions of DEAE-Sepharose) was “completely inhibited”.
